Experimental data: patent US20240252527A9, “NUCLEOSIDE DRUGS FOR THE TREATMENT OR PREVENTION OF CORONAVIRUS INFECTION AND THEIR USES” (Miracure Biotechnology Limited, priority 2022, published 2024)
Read-outs that look alike come from different tables or passages of the source.

What was measured:
[1] = system: 229E; test: 229E MRC5 CPE assay (cytopathic experiment); assay type: cell-based, coronavirus 229E (HCoV-229E)
Protocol: (§1) Cells were seeded into microplates at a certain density and cultured overnight in a incubator at 5% CO2, 37° C. The next day, double-diluted compound and virus were added. It was set up a cell control group (cells without treatment with a compound or virus infection), a virus control group (cells infected with virus, no compound treatment) and a culture medium control group (medium only). Cells were cultured in the incubator for 3 days (229E) or 7 days (OC43). Cytotoxicity experiments were performed under the same conditions as antiviral experiments, but without virus infection. Cell viability was tested using a cell viability assay kit Cell Titer Glo (Promega).
(§2) The antiviral activity and cytotoxicity of the compounds were expressed by the inhibition rate (%) and cell viability (%) of the compounds against virus-induced cytopathic effects at different concentrations, respectively. Nonlinear fitting analysis on the inhibition rate and cell viability of the compounds were carried out with the GraphPad Prism, and the half effective concentration (EC50), the […] effective concentration (EC90), the half cytotoxic concentration (CC50) and the 90% cytotoxic concentration of the compound […] values were calculated.

[2] = system: OC43; test: OC43 Huh7 CPE assay (cytopathic experiment); assay type: cell-based, coronavirus OC43 (HCoV-OC43); conditions: for EC50: read-out: OC43 Huh7 CPE assay (μM) EC50; for EC90: read-out: OC43 Huh7 CPE assay (μM) EC90
Protocol: as §1, §2

[3] = Human coronavirus 229E, MRC5, 72 h, read-out: 229E MRC5 CPE assay (μM) EC50
[4] = Human coronavirus 229E, MRC5, 72 h, read-out: 229E MRC5 CPE assay (μM) EC90
[5] = Betacoronavirus 1, OC43, Huh-7, 168 h
[6] = Human coronavirus 229E, MRC5, 72 h; read-out: 229E MRC5 CPE assay (μM) EC50
[7] = Human coronavirus 229E, MRC5, 72 h; read-out: 229E MRC5 CPE assay (μM) EC90
[8] = Betacoronavirus 1, Huh-7, 168 h, Huh7 cells, OC43 virus, 7 days, Cell Titer Glo
[9] = Huh7 cells, OC43 virus, 7 days, Cell Titer Glo

SMILES: CCC(CC)COC(=O)[C@H](C)N[P@@](=O)(OCOC(=O)OC(C)C)OC[C@H]1O[C@@](C#N)(c2ccc3c(N)ncnn23)[C@H](O)[C@@H]1O [Compound 076]
- EC50 [1, 3]: < 0.1 µM
- EC90 [1, 4]: 0.1 to 0.5 µM
- EC50 [2, 5]: 0.1 to 0.5 µM
- EC90 [2, 5]: 0.1 to 0.5 µM

SMILES: CCN(CC)Cc1cc(Nc2ccnc3cc(Cl)ccc23)ccc1O[P@](=O)(N[C@@H](C)C(=O)OC(C)C)OC[C@H]1O[C@@](C#N)(c2ccc3c(N)ncnn23)[C@H](O)[C@@H]1O [Compound 086]
- EC50 [1, 6]: > 0.5 µM
- EC90 [1, 7]: > 0.5 µM
- EC50 [2, 8]: > 0.5 µM
- EC90 [2, 8]: > 0.5 µM

SMILES: CCN(CC)Cc1cc(Nc2ccnc3cc(Cl)ccc23)ccc1O[P@](=O)(N[C@@H](C)C(=O)OC)OC[C@H]1O[C@@](C#N)(c2ccc3c(N)ncnn23)[C@H](O)[C@@H]1O [Compound 087]
- EC50 [1, 6]: > 0.5 µM
- EC90 [1, 7]: > 0.5 µM
- EC50 [2, 8]: > 0.5 µM
- EC90 [2, 8]: > 0.5 µM

SMILES: CCOC(=O)[C@H](C)N[P@](=O)(OC[C@H]1O[C@@](C#N)(c2ccc3c(N)ncnn23)[C@H](O)[C@@H]1O)Oc1ccc(Nc2ccnc3cc(Cl)ccc23)cc1CN(CC)CC [Compound 088]
- EC50 [1, 6]: > 0.5 µM
- EC90 [1, 7]: > 0.5 µM
- EC50 [2, 8]: > 0.5 µM
- EC90 [2, 8]: > 0.5 µM

SMILES: N#C[C@@]1(c2ccc3c(N)ncnn23)O[C@@H]2COP(=O)(O)O[C@H]2[C@H]1O [Compound 094]
- EC50 [1, 3]: > 0.5 µM
- EC90 [1, 4]: > 0.5 µM
- EC50 [2, 5]: > 0.5 µM
- EC90 [2, 5]: > 0.5 µM

SMILES: CCCC(CCC)C(=O)OCO[P@](=O)(N[C@@H](C)C(=O)OC)OC[C@H]1O[C@@](C#N)(c2ccc3c(N)ncnn23)[C@H](O)[C@@H]1O [Compound 095]
- EC50 [1, 3]: < 0.1 µM
- EC90 [1, 4]: 0.1 to 0.5 µM
- EC50 [2, 5]: < 0.1 µM
- EC90 [2, 5]: 0.1 to 0.5 µM

SMILES: CCCC(CCC)C(=O)OCO[P@@](=O)(N[C@@H](C)C(=O)OC)OC[C@H]1O[C@@](C#N)(c2ccc3c(N)ncnn23)[C@H](O)[C@@H]1O [Compound 096]
- EC50 [1, 3]: < 0.1 µM
- EC90 [1, 4]: < 0.1 µM
- EC50 [2, 5]: 0.1 to 0.5 µM
- EC90 [2, 5]: 0.1 to 0.5 µM

SMILES: CCCC(CCC)C(=O)OCO[P@](=O)(N[C@@H](C)C(=O)OCC)OC[C@H]1O[C@@](C#N)(c2ccc3c(N)ncnn23)[C@H](O)[C@@H]1O [Compound 097]
- EC50 [1, 3]: < 0.1 µM
- EC90 [1, 4]: 0.1 to 0.5 µM
- EC50 [2, 5]: 0.1 to 0.5 µM
- EC90 [2, 5]: 0.1 to 0.5 µM

SMILES: CCCC(CCC)C(=O)OCO[P@@](=O)(N[C@@H](C)C(=O)OCC)OC[C@H]1O[C@@](C#N)(c2ccc3c(N)ncnn23)[C@H](O)[C@@H]1O [Compound 098]
- EC50 [1, 3]: < 0.1 µM
- EC90 [1, 4]: < 0.1 µM
- EC50 [2, 5]: < 0.1 µM
- EC90 [2, 5]: 0.1 to 0.5 µM

SMILES: CCC(CC)COC(=O)[C@H](C)NP(=O)(OCC(=O)OC(C)C)OC[C@H]1O[C@@](C#N)(c2ccc3c(N)ncnn23)[C@H](O)[C@@H]1O (stereo partly drawn) [Compound 103]
- EC50 [1, 3]: > 0.5 µM
- EC90 [1, 4]: > 0.5 µM
- EC50 [2, 5]: > 0.5 µM
- EC90 [2, 5]: > 0.5 µM

SMILES: CCC(CC)COC(=O)[C@H](C)NP(=O)(OCOC(=O)C(C)C)OC[C@H]1O[C@@](C#N)(c2ccc3c(N)ncnn23)[C@H](O)[C@@H]1O (stereo partly drawn) [Compound 104]
- EC50 [1, 3]: > 0.5 µM
- EC90 [1, 4]: > 0.5 µM
- EC50 [2, 5]: > 0.5 µM
- EC90 [2, 5]: > 0.5 µM

SMILES: CCC(CC)COC(=O)[C@H](C)NP(=O)(OC[C@H]1O[C@@](C#N)(c2ccc3c(N)ncnn23)[C@H](O)[C@@H]1O)Oc1ccc(N)cc1C(=O)O (stereo partly drawn) [Compound 107]
- EC50 [1, 6]: > 0.5 µM
- EC90 [1, 7]: > 0.5 µM
- EC50 [2, 8]: > 0.5 µM
- EC90 [2, 8]: > 0.5 µM

SMILES: CCCC(CCC)C(=O)OCO[P@](=O)(NC(C)(C)C(=O)OCC(CC)CC)OC[C@H]1O[C@@](C#N)(c2ccc3c(N)ncnn23)[C@H](O)[C@@H]1O [Compound 120]
- EC50 [1, 3]: < 0.1 µM
- EC90 [1, 4]: 0.1 to 0.5 µM
- EC50 [2, 5]: < 0.1 µM
- EC90 [2, 5]: 0.1 to 0.5 µM

SMILES: CCCC(CCC)C(=O)OCO[P@@](=O)(NC(C)(C)C(=O)OCC(CC)CC)OC[C@H]1O[C@@](C#N)(c2ccc3c(N)ncnn23)[C@H](O)[C@@H]1O [Compound 121]
- EC50 [1, 3]: 0.1 to 0.5 µM
- EC90 [1, 4]: 0.1 to 0.5 µM
- EC50 [2, 5]: 0.1 to 0.5 µM
- EC90 [2, 5]: > 0.5 µM

SMILES: CCCC(CCC)C(=O)OCO[P@](=O)(NC(C)(C)C(=O)OC(C)C)OC[C@H]1O[C@@](C#N)(c2ccc3c(N)ncnn23)[C@H](O)[C@@H]1O [Compound 122]
- EC50 [1, 3]: 0.1 to 0.5 µM
- EC90 [1, 4]: 0.1 to 0.5 µM
- EC50 [2, 5]: 0.1 to 0.5 µM
- EC90 [2, 5]: 0.1 to 0.5 µM

SMILES: CCCC(CCC)C(=O)OCO[P@@](=O)(NC(C)(C)C(=O)OC(C)C)OC[C@H]1O[C@@](C#N)(c2ccc3c(N)ncnn23)[C@H](O)[C@@H]1O [Compound 123]
- EC50 [1, 3]: 0.1 to 0.5 µM
- EC90 [1, 4]: 0.1 to 0.5 µM
- EC50 [2, 5]: 0.1 to 0.5 µM
- EC90 [2, 5]: > 0.5 µM

SMILES: CCC(CC)COC(=O)[C@H](C)N[P@]1(=O)OC[C@H]2O[C@@](C#N)(c3ccc4c(N)ncnn34)[C@H](O)[C@@H]2O1 [Compound 126]
- EC50 [1, 3]: < 0.1 µM
- EC90 [1, 4]: 0.1 to 0.5 µM
- EC50 [2, 5]: < 0.1 µM
- EC90 [2, 5]: 0.1 to 0.5 µM

SMILES: CCC(CC)COC(=O)[C@H](C)NP(=O)(OC[C@H]1O[C@@](C#N)(c2ccc3c(N)ncnn23)[C@H](O)[C@@H]1O)Oc1cc(N)ccc1C(=O)OC (stereo partly drawn) [Compound 128]
- EC50 [1, 6]: > 0.5 µM
- EC90 [1, 7]: > 0.5 µM
- EC50 [2, 8]: > 0.5 µM
- EC90 [2, 8]: > 0.5 µM

SMILES: CCCC(CCC)C(=O)OCO[P@@]1(=O)OC[C@H]2O[C@@](C#N)(c3ccc4c(N)ncnn34)[C@H](O)[C@@H]2O1 [Compound 129]
- EC50 [1, 3]: < 0.1 µM
- EC90 [1, 4]: < 0.1 µM
- EC50 [2, 5]: < 0.1 µM
- EC90 [2, 5]: > 0.5 µM

SMILES: CCCC(CCC)C(=O)OCO[P@]1(=O)OC[C@H]2O[C@@](C#N)(c3ccc4c(N)ncnn34)[C@H](O)[C@@H]2O1 [Compound 130]
- EC50 [1, 3]: < 0.1 µM
- EC90 [1, 4]: 0.1 to 0.5 µM
- EC50 [2, 5]: < 0.1 µM
- EC90 [2, 5]: 0.1 to 0.5 µM

SMILES: CCCC(CCC)C(=O)OCO[P@](=O)(N[C@@H](Cc1ccccc1)C(=O)OCC)OC[C@H]1O[C@@](C#N)(c2ccc3c(N)ncnn23)[C@H](O)[C@@H]1O [Compound 137]
- EC50 [1, 3]: < 0.1 µM
- EC90 [1, 4]: 0.1 to 0.5 µM
- EC50 [2, 5]: < 0.1 µM
- EC90 [2, 5]: < 0.1 µM

SMILES: CCCCOC(=O)[C@H](Cc1ccccc1)N[P@@](=O)(OCOC(=O)C(CCC)CCC)OC[C@H]1O[C@@](C#N)(c2ccc3c(N)ncnn23)[C@H](O)[C@@H]1O [Compound 138]
- EC50 [1, 3]: < 0.1 µM
- EC90 [1, 4]: 0.1 to 0.5 µM
- EC50 [2, 5]: < 0.1 µM
- EC90 [2, 5]: < 0.1 µM

SMILES: CCCC(CCC)C(=O)OCO[P@](=O)(N[C@@H](Cc1ccccc1)C(=O)OCC(CC)CC)OC[C@H]1O[C@@](C#N)(c2ccc3c(N)ncnn23)[C@H](O)[C@@H]1O [Compound 139]
- EC50 [1, 3]: < 0.1 µM
- EC90 [1, 4]: 0.1 to 0.5 µM
- EC50 [2, 5]: < 0.1 µM
- EC90 [2, 5]: < 0.1 µM

SMILES: CCC(CC)COC(=O)[C@H](C)N[P@@]1(=O)OC[C@H]2O[C@@](C#N)(c3ccc4c(N)ncnn34)[C@H](O)[C@@H]2O1 [Compound 140]
- EC50 [1, 3]: > 0.5 µM
- EC90 [1, 4]: > 0.5 µM
- EC50 [2, 5]: > 0.5 µM
- EC90 [2, 5]: > 0.5 µM

SMILES: CCCC(CCC)C(=O)OC(C)O[P@]1(=O)OC[C@H]2O[C@@](C#N)(c3ccc4c(N)ncnn34)[C@H](O)[C@@H]2O1 (stereo partly drawn) [Compound 141]
- EC50 [1, 3]: > 0.5 µM
- EC90 [1, 4]: > 0.5 µM
- EC50 [2, 5]: > 0.5 µM
- EC90 [2, 5]: > 0.5 µM

SMILES: CCCC(CCC)C(=O)OC(C)O[P@]1(=O)OC[C@H]2O[C@@](C#N)(c3ccc4c(N)ncnn34)[C@H](O)[C@@H]2O1 (stereo partly drawn) [Compound 142]
- EC50 ([1]; read-out: 229E MRC5 CPE assay (μM) EC50; MRC5 cells, 229E virus, 3 days, Cell Titer Glo): > 0.5 µM
- EC90 ([1]; read-out: 229E MRC5 CPE assay (μM) EC90; MRC5 cells, 229E virus, 3 days, Cell Titer Glo): > 0.5 µM
- EC50 [2, 9]: > 0.5 µM
- EC90 [2, 9]: > 0.5 µM

SMILES: CCCC(CCC)C(=O)OCO[P@]1(=S)OC[C@H]2O[C@@](C#N)(c3ccc4c(N)ncnn34)[C@H](O)[C@@H]2O1 [Compound 143]
- EC50 [1, 6]: > 0.5 µM
- EC90 [1, 7]: > 0.5 µM
- EC50 [2, 5]: > 0.5 µM
- EC90 [2, 5]: > 0.5 µM
